We go through 2 compounds from patent US20110136990A1, “POLYMER DERIVATIVE OF DOCETAXEL, METHOD OF PREPARING THE SAME AND USES THEREOF” (priority 2008, published 2011).

What all share (type): in vivo
Series [1] is described as follows: Changes in body weight of mice bearing PC-3 cells. The note with it: nude mice bearing PC-3, 15 mg/kg, tail vein every four days, three times. The method, then: (§1) Using the polymer derivative of docetaxel (PEG-pAsp-14DTX) obtained in Example 1, the following experiment was carried out. PC-3 cells were purchased from ATCC through Summit Pharmaceuticals International Corporation. PC-3 cells were cultured in a RPMI1640+10% FBS medium at 5% CO2 and 37° C., and grown to the cell number required for xenograft. The cells were suspended in physiological saline, and inoculated subcutaneously at the back of the male nude mice [Balb nu/nu, 5 week-old, Charles River Laboratories Japan, Inc.] to 3×10^6 cells/100 μl per mouse. Then, the nude mice were kept for 15 days, and drug administration was started when the tumor volume reached 81.6±5.0 mm^3 (mean±SE, in which SE represents the standard error, the same shall apply hereinafter). […] For the following four groups (n=8), changes in tumor volume and body weight over time were determined: (1) Control group (untreated), (2) 15 mg/kg of a DMSO solution of docetaxel group, (3) 15 mg/kg of PEG-pAsp-14DTX group, and (4) 20 mg/kg of PEG-pAsp-14DTX group (the dosage was the converted amount of docetaxel mg/kg/injection). […] For tumor volume, the major dimension (a mm) and the minor dimension (b mm) were measured with an electronic caliper [Mitsutoyo Corporation], and the volume was calculated according to the following equation.

For series [2], the system named is human prostate cancer PC-3 cells. Nature of the series: Drug efficacy test using human prostate cancer PC-3 cells (tumor volume). The note with it: nude mice, PC-3 xenograft, 15 mg/kg, tail vein every four days, three times. The method, then:
as §1, with “equation. […]” for “equation.”

Series [3] is described as follows: Pharmacokinetic study in mice (plasma levels of DTX). The note with it: male Balb/c mice, tail vein, 10 mg/kg, 5 minutes to 48 hours. How it is done: Ten mg in terms of DTX of the polymer derivative of docetaxel (PEG-pAsp-14DTX) obtained in Example 1 was precisely weighed into a sample vial, to which 1 ml of purified water was added to suspend the sample. After stirring at 4° C. for a whole day and night, it was sonicated under ice cooling for 10 minutes using a Biodisruptor (Nihon Seiki Seisakusho, High Power Unit), filtered with a 0.22 μm filter [Millipore, Millex (registered trademark) GP PES], and the filtrate was collected. The filtrate was gel-filtered (GE Healthcare Bioscience, PD-10, the elution solution: a 10% sucrose solution), and the collected polymer micelle fraction (the mean particle size 120 nm) was used in the following experiment. […]
DTX in the polymer-bound form was hydrolyzed to a free form, and total DTX was determined as follows. […] This was loaded in a HPLC sample vial and analyzed by HPLC under the following condition. The content of DTX was calculated based on the ratio of the peak area of DTX relative to the peak area derived from paclitaxel, which was used as the internal standard.
To 50 μl of the collected plasma, 20 μl of paclitaxel/50% acetonitrile (20 μg/mL) as the internal standard and 300 μl of ethyl acetate were added in this order, and stirred vigorously for one minute at room temperature. […] This was loaded in a HPLC sample vial and analyzed by HPLC […]

For the compound `CC(=O)O[C@@]12CO[C@@H]1C[C@H](O)[C@@]1(C)C(=O)[C@H](O)C3=C(C)[C@@H](OC(=O)[C@H](O)[C@@H](NC(=O)OC(C)(C)C)c4ccccc4)C[C@@](O)([C@@H](OC(=O)c4ccccc4)[C@H]21)C3(C)C` [DMSO solution of docetaxel, docetaxel], the “reduction in body weight” value in series [1] is on record as “marked reduction in body weight”. Further, the “tumor growth compared to control group” value in series [2] is listed as “tumor growth was markedly suppressed”. Consider `CC(=O)O[C@@]12CO[C@@H]1C[C@H](O)[C@@]1(C)C(=O)[C@H](O)C3=C(C)[C@@H](OC(=O)[C@H](O)[C@@H](NC(=O)OC(C)(C)C)c4ccccc4)C[C@@](O)([C@@H](OC(=O)c4ccccc4)[C@H]21)C3(C)C` [docetaxel solution, docetaxel], for which, in series [3], the “changes in plasma levels with time (docetaxel)” value was “disappears rapidly”.
